Values of other authors in patent US9814239B2, “Antimicrobial complexes” (priority 2010, dated 2017).

What was measured:
[1] = system: Bacillus subtilis; settings: Gram Positive
[2] = system: Staphylococcus aureus; settings: Gram Positive
[3] = system: Streptococcus faecalis; settings: Gram Positive
[4] = system: Escherichia coli; settings: Gram Negative
[5] = system: Proteus vulgaris; settings: Gram Negative
[6] = system: Pseudomonas aeruginosa; settings: Gram Negative
[7] = system: Salmonella typhimurium; settings: Gram Negative
[8] = system: Aspergillus niger; settings: Molds
[9] = system: Endomycopsis albicans; settings: Yeasts
[10] = system: Saccharomyces cerevisiae; settings: Amoeba (so in the source)

In the case of [O-][n+]1ccccc1S [Sodium Omadine, sodium omadine], the “Bactericide concentration (ppm)” value [1] is given as 0.5 ppm, the “Bactericide concentration (ppm)” value [2] is given as 16 ppm and the “Bactericide concentration (ppm)” value [3] is given as 2 ppm. The “Bactericide concentration (ppm)” value [4] was 16 ppm, the “Bactericide concentration (ppm)” value [5] was 8 ppm and the “Bactericide concentration (ppm)” value [6] was 128 ppm. For the same molecule, the “Bactericide concentration (ppm)” value [7] was 16 ppm, the “Fungicide concentration (ppm)” value [8] was less than 0.25 ppm and the “Fungicide concentration (ppm)” value [9] was less than 0.25 ppm. The “Fungicide concentration (ppm)” value [10] was less than 0.25 ppm.
